Results on eleven molecules are retold here after patent US6818656B2, “Method and composition for treatment of irritable bowel disease” (University of Florida, priority 2001, dated 2004).

Series [1] concerns stress-induced fecal output. Put plainly: Psychological stress-induced (water avoidance) IBS model, SC administration. It counts as in vivo. Particulars: for Stool Output: 6-h collection. An excerpt: (§1) For drug preparation and administration, the compounds were put into solution with sterile normal saline and sonicated briefly, if necessary. The drugs were made up at concentrations such that the rats received the drugs PO or SC at the rate of 1 cc per kilogram. Mice received the CHX(3,4,3)-trans IP at 1 cc per 100 grams. The solutions were made fresh the day of the study. Control animals received an equivalent amount of saline PO or SC.
Animal care and experimental procedures were approved by the Institutional Animal Care and Use Committee. Male Sprague-Dawley rats (250-350 g, Harlan Sprague-Dawley, Indianapolis, Ind.) were housed in polycarbonate cages in a temperature- and humidity-controlled room with a 12-hour light/dark cycle. The experiments were performed at the same time of the day to decrease diurnal variability. A typical experiment involved 20 rats: 5 saline-treated controls and 5 pretreated with polyamine analogues at each of three doses as either a SC injection or a PO gavage. The rats in the SC studies and in one set of experiments involving PO administration were allowed ad libitum access to a standard rodent diet and tap water until the morning of the experiment. Stress was initiated 30 minutes post drug as described below. In another set of experiments involving PO administration, the animals were fasted overnight but were allowed free access to water. […] In a final experiment, non-stressed control rats were injected with saline SC and housed in individual polycarbonate cages. The fecal output (number of pellets) of the stressed and unstressed animals was recorded at 30-min intervals for a 6-h period, during which they received no food or water.
(§2) To initiate the stress, water was added to each cage to a depth of at least 4.5 cm, i.e., within 0.5 cm of the top of the Pyrex dish. To avoid contact with water, the rats stand on the glass dish for the 6 h of the study. Stool output was expressed as the total number of fecal pellets excreted over the 6-h collection period. Percent reduction was calculated by dividing the mean value from the treated animals (T) by the mean value from the control animals (C), subtracting the resulting quotient from 1.0, and multiplying by 100 [i.e., (1.0−T/C)×100].
(§3) A one-tailed t-test assuming unequal variance was performed on the stool output data of the treated vs control (0 mg/kg) animals for each compound. A value of P<0.05 was considered significant.
The psychological stress-induced IBS model involves subjecting the rats to an aversive stimulus (water) and observing the increase in fecal output over a period of time. […] Control rats received an equivalent amount of saline SC.

The subject of series [2] is stress-induced fecal output. Put plainly: Psychological stress-induced (water avoidance) IBS model, PO administration by gavage. It counts as in vivo, rat. Particulars: for oral activity against stress-induced fecal output (in words): PO gavage, non-fasted rats, 11.6-115.6 μmol/kg; for Stool Output: 6-hr collection; for % Reduction: vs stressed controls, 6 hr.
Description: as §1
Animal care and experimental procedures were approved by the Institutional Animal Care and Use Committee. Male Sprague-Dawley rats (250-350 g, Harlan Sprague-Dawley, Indianapolis, Ind.) were housed in polycarbonate cages in a temperature- and humidity-controlled room with a 12-hour light/dark cycle. The experiments were performed at the same time of the day to decrease diurnal variability. A typical experiment involved 20 rats: 5 saline-treated controls and 5 pretreated with polyamine analogues at each of three doses as either a SC injection or a PO gavage. The rats in the SC studies and in one set of experiments involving PO administration were allowed ad libitum access to a standard rodent diet and tap water until the morning of the experiment. Stress was initiated 30 minutes post drug as described below. In another set of experiments involving PO administration, the animals were fasted overnight but were allowed free access to water. The animals were then stressed from ½ h to 2 h post-drug (data not shown). In a final experiment, non-stressed control rats were injected with saline SC and housed in individual polycarbonate cages. The fecal output (number of pellets) of the stressed and unstressed animals was recorded at 30-min intervals for a 6-h period, during which they received no food or water.
as §2, with “Once the drug had been administered, the animals were housed individually in polycarbonate cages containing a clear 70×50 mm Pyrex crystallization dish (Fisher, Pittsburgh, Pa.) inverted in the center and held in place with vacuum grease. To initiate” for “To initiate”
as §3
Because an orally active compound would be desirable for the treatment of IBS, selected analogues utilizing oral administration in the same model were assessed. In the initial studies animals were utilized that had been fasted overnight. Rodents were then given the drug of interest PO by gavage and stressed ½ h, 1 h, or 2 h post-drug. Unfortunately, because of the low baseline stool output in fasted control rats, the reductions in fecal output observed upon drug administration cannot be reported with any confidence (data not shown). Thereafter, only non-fasted animals were employed and were given the agents by gavage at doses of 11.6, 23.2, 57.8, or 115.6:mol/kg 30 minutes before initiating the stress. […] At doses of 11.6 and 23.2:mol/kg, CHX(3,4,3)-trans reduced stooling by about 80% (P=0.001 and <0.001, respectively). DEHSPM was effective at a dose of […]:mol/kg (40% diminution of fecal output; P<0.01), and DE(5,4,5) was active at doses of 23.2 and 57.8:mol/kg (55 and 73% reductions in fecal output, respectively; P<0.001 for both doses).

The subject of series [3] is castor oil-induced diarrhea. The settings on record: doses equivalent to a 5 mg/kg dose of DEHSPM; cited from earlier work.
[4] abbreviates: 2.3 μmol/kg SC, stress 30 min post drug.
[5] abbreviates: Rattus norvegicus, 2.3 μmol/kg SC, vs stressed controls, 6 h, read-out: % Reduction.
[6] abbreviates: Rattus norvegicus, 11.6 μmol/kg SC, vs stressed controls, 6 h, read-out: % Reduction.
Where [7] appears, read: Rattus norvegicus, 23.2 μmol/kg SC, vs stressed controls, 6 h, read-out: % Reduction.
The mark [8] stands for this setting: Rattus norvegicus, 57.8 μmol/kg SC, vs stressed controls, 6 h, read-out: % Reduction.

`CC(C)NCCCNCCCNCCCNC(C)C` [Compound 2]: the “Stool Output” value in series [1] (setting [4]) is 17.6 ± 5.5 number of fecal pellets; in series [1] (11.6 μmol/kg SC) it was 13.6 ± 3.2 number of fecal pellets; in series [1] (57.8 μmol/kg SC), 7.4 ± 3.6 number of fecal pellets. Besides, in series [1] (SC administration to stressed rats), the “activity at diminishing stress-induced fecal output (in words)” value is “ineffective”.

Turning to `CCCNCCCNCCCCNCCCNCCC` [Compound 4], the “Stool Output” value in series [1] (setting [4]) is given as 11.4 ± 7.2 number of fecal pellets; in series [1] (11.6 μmol/kg SC), 11.5 ± 8.7 number of fecal pellets; in series [1] (23.2 μmol/kg SC) it was 5.7 ± 4.1 number of fecal pellets; in series [1] (57.8 μmol/kg SC) it was 0.2 ± 0.4 number of fecal pellets. Moreover, in series [1] (setting [5]), the inhibition in vivo at 2.3 µmol/kg amounted to 49%. The inhibition in vivo at 11.6 µmol/kg in series [1] (setting [6]) stood at 48%. For the same molecule, in series [1] (setting [7]), the inhibition in vivo at 23.2 µmol/kg is 74%. Also, the inhibition in vivo at 57.8 µmol/kg in series [1] (setting [8]) was 99%.

With `CC(C)NCCCNCCCCNCCCNC(C)C` [Compound 6, N^1,N^12 diisopropylspermine], the “Stool Output” value in series [1] (5.8 μmol/kg SC) was 4.6 ± 2.3 number of fecal pellets; in series [1] (11.6 μmol/kg SC) it was 1.6 ± 1.8 number of fecal pellets. Further, the inhibition in vivo at 5.8 µmol/kg in series [1] (Rattus norvegicus, 5.8 μmol/kg SC, vs stressed controls, 6 h, read-out: % Reduction) amounted to 70%. The inhibition in vivo at 11.6 µmol/kg in series [1] (setting [6]) was 90%. Moreover, in series [2], the “oral activity against stress-induced fecal output (in words)” value is “only CHX(3,4,3)-trans, DEHSPM, and DE(5,4,5) showed any activity at all”.

Regarding `CC(C)CNCCCNCCCCNCCCNCC(C)C` [Compound 7], the “Stool Output” value in series [1] (setting [4]) is listed as 15.9 ± 5.7 number of fecal pellets; in series [1] (11.6 μmol/kg SC), 12.2 ± 2.7 number of fecal pellets; in series [1] (23.2 μmol/kg SC), 6.6 ± 3.1 number of fecal pellets. Besides, the “toxic effects observed in stressed rats” value in series [1] (23.2 μmol/kg SC) is recorded as “^gToxic effects were evident, including huddling in the corner of the cage”. The inhibition in vivo at 11.6 µmol/kg in series [1] (setting [6]) came out at 34%. Further, in series [1] (setting [7]), the inhibition in vivo at 23.2 µmol/kg is 64%. The “neurotoxicity in rats at subtherapeutic doses” value in series [3] was “Signs of neurotoxicity”.

For `CC(C)CNCCCNCCCCNCCCN` [Compound 8], the “Stool Output” value is recorded as 14.8 ± 3.8 number of fecal pellets in series [1] (setting [4]), 11.2 ± 2.2 number of fecal pellets in series [1] (11.6 μmol/kg SC) and 10.6 ± 2.9 number of fecal pellets in series [1] (23.2 μmol/kg SC). Moreover, in series [1] (23.2 μmol/kg SC), the “toxic effects observed in stressed rats” value is on record as “^gToxic effects were evident, including huddling in the corner of the cage”. Also, the inhibition in vivo at 2.3 µmol/kg in series [1] (setting [5]) is 30%. Besides, the inhibition in vivo at 11.6 µmol/kg in series [1] (setting [6]) was found to be 47%. In addition, the inhibition in vivo at 23.2 µmol/kg in series [1] (setting [7]) was found to be 50%.

As to `c1ccc(CNCCCNCCCCNCCCNCc2ccccc2)cc1` [Compound 10], the “Stool Output” value in series [1] (setting [4]) was 12.6 ± 4.8 number of fecal pellets; in series [1] (11.6 μmol/kg SC), 11.6 ± 2.9 number of fecal pellets; in series [1] (57.8 μmol/kg SC), 8.4 ± 1.5 number of fecal pellets. Also, the inhibition in vivo at 57.8 µmol/kg in series [1] (setting [8]) came out at 55%.

As for `FC(F)(F)c1ccccc1CCNCCCNCCCCNCCCNCCc1ccccc1C(F)(F)F` [Compound 11], the “Stool Output” value in series [1] (setting [4]) is 12.4 ± 2.1 number of fecal pellets; in series [1] (11.6 μmol/kg SC), 13.6 ± 5.1 number of fecal pellets; in series [1] (23.2 μmol/kg SC), 11.4 ± 2.1 number of fecal pellets.

On to `CCNCCCCCNCCCCNCCCCCNCC` [Compound 14, N,N′-bis[5-(ethylamino)pentyl]-1,4-butanediamine], for which the “Stool Output” value is 13.2 ± 6.3 number of fecal pellets in series [1] (setting [4]); 2.2 ± 3.3 number of fecal pellets in series [1] (11.6 μmol/kg SC); 0 ± 0 number of fecal pellets in series [1] (57.8 μmol/kg SC); 15.2 ± 8.5 number of fecal pellets in series [2] (11.6 μmol/kg PO); 8.6 ± 4.9 number of fecal pellets in series [2] (23.2 μmol/kg PO); 5.1 ± 3.1 number of fecal pellets in series [2] (57.8 μmol/kg PO). Further, the inhibition in vivo at 11.6 µmol/kg in series [1] (setting [6]) was determined as 88%. In series [1] (setting [8]), the inhibition in vivo at 57.8 µmol/kg worked out at 100%. For the same molecule, the “% Reduction” value in series [2] (23.2 μmol/kg PO) is listed as 55%; in series [2] (57.8 μmol/kg PO) it was 73%.

With `C(CCNCCC1CCNCC1)CNCCC1CCNCC1` [Compound 15, N,N′-bis[2-(4-piperidinyl)ethyl]-1,4-diaminobutane], the figures for the “Stool Output” value in series [1] (2.32 μmol/kg SC), in series [1] (11.57 μmol/kg SC) and in series [1] (57.8 μmol/kg SC) were 8.8 ± 1.6 number of fecal pellets, 8.2 ± 3.1 number of fecal pellets and 2.0 ± 2.0 number of fecal pellets, respectively. Further, the inhibition in vivo at 57.8 µmol/kg in series [1] (setting [8]) turned out to be 82%. The “oral activity against stress-induced fecal output (in words)” value in series [2] is “only CHX(3,4,3)-trans, DEHSPM, and DE(5,4,5) showed any activity at all”.

For the molecule `CCNCCCCCCNCCCNCCCNCC` [Compound 16], the “Stool Output” value in series [1] (2.31 μmol/kg SC) is 10.4 ± 5.2 number of fecal pellets; in series [1] (11.56 μmol/kg SC), 9.4 ± 4.1 number of fecal pellets; in series [1] (57.8 μmol/kg SC) it was 0.4 ± 0.9 number of fecal pellets. Also, in series [1] (57.8 μmol/kg SC), the “toxic effects observed in stressed rats” value is listed as “^iThe rats were quite lethargic, as though sedated, after drug administration”. Moreover, the inhibition in vivo at 57.8 µmol/kg in series [1] (setting [8]) is 97%.

As for `CC(C)NCCCCCCNCCCNCCCNC(C)C` [Compound 17], the “toxic effects observed in stressed rats” value in series [1] (2.32 μmol/kg SC) is on record as “^iThe rats were quite lethargic, as though sedated, after drug administration”; in series [1] (11.56 μmol/kg SC), “^iThe rats were quite lethargic, as though sedated, after drug administration”; in series [1] (57.8 μmol/kg SC) it was “^iThe rats were quite lethargic, as though sedated, after drug administration”. The “Stool Output” value in series [1] (2.32 μmol/kg SC) is on record as 1.4 ± 1.9 number of fecal pellets; in series [1] (11.56 μmol/kg SC) it was 0 ± 0 number of fecal pellets; in series [1] (57.8 μmol/kg SC), 0 ± 0 number of fecal pellets. For the same molecule, the inhibition in vivo at 2.32 µmol/kg in series [1] (Rattus norvegicus, 2.32 μmol/kg SC, vs stressed controls, 6 h, read-out: % Reduction) is 84%. For the same molecule, the inhibition in vivo at 11.56 µmol/kg in series [1] (Rattus norvegicus, 11.56 μmol/kg SC, vs stressed controls, 6 h, read-out: % Reduction) is 100%. Further, in series [1] (setting [8]), the inhibition in vivo at 57.8 µmol/kg came out at 100%.
